Here are results for 3 compounds from PubChem BioAssay (NCI).

Common to all, as to experiment: NCI anticancer screen, dose series, 48 h
Test [1] relates to MDA-MB-231 breast.
The subject of test [2] is SNB-75 CNS.
The subject of test [3] is UO-31 renal.
For test [4], the system named is SF-295 CNS.
Test [5] concerns OVCAR-8 ovarian.
In test [6] the test system is SNB-19 CNS.
Test [7] deals with IGROV1 ovarian.
The test system of test [8] is SN12C renal.
Test [9] has as its system SF-539 CNS.
Test [10] has as its system RPMI-8226 leukemia.

Each structure is given as a SMILES string.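 Grown in 96-well plates, cells were treated for 48 hours with each compound at five concentrations. Insufficient inhibition: endpoint recorded as highest concentration tested. The concentration for 50% growth inhibition is given as GI50. TGI is the concentration that stops growth completely.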

Turning to `C=C1C(=O)O[C@H]2[C@H]1CC/C(Cn1cc(-c3ccc(N)cc3)nn1)=C\CC[C@@]1(C)O[C@@H]21`, the GI50 was 3.45 µM in test [1]; 4.98 µM in test [2]; 1.87 µM in test [3]; 12.1 µM in test [4]; 3.04 µM in [5]; 12.7 µM in [6]. Further, the GI50 in [7] is 2.96 µM; in test [8], 3.48 µM; in test [9], 2.77 µM; in test [10], 2.75 µM. For the same compound, the TGI was found to be 15.8 µM in [1]; 22.4 µM in test [2]; 10.1 µM in test [3]; 26.5 µM in test [4]; 12.4 µM in [5]; 41.1 µM in [6]. The TGI in test [7] was 14.1 µM; in [8], 15.1 µM; in test [9], 8.75 µM; in test [10], 10.4 µM.
Consider `COc1cccc(CNc2ncnc3c2ncn3C2OC(CO)C(O)C2O)c1O` (centres undefined), for which the GI50 in test [1] was 0.0302 µM; in test [2], 0.174 µM; in test [3], 0.123 µM; in test [4] it was 0.165 µM; in test [5], 0.0679 µM; in test [6], 0.48 µM. Moreover, the GI50 in [7] was 0.206 µM; in test [8], 0.045 µM; in test [9], 0.144 µM; in [10], 0.319 µM. The TGI was 0.111 µM in [1]; 9.96 µM in test [2]; over 28.6 µM in [3]; 0.66 µM in test [4]; over 43 µM in test [5]; over 100 µM in test [6]. The TGI in [8] was over 100 µM; in test [9] it was 1.85 µM; in [10], over 100 µM.
As for `COc1ccc(C2=NC(=O)NC2c2ccc(OC)cc2)cc1` (centres undefined), the GI50 in test [1] was 12.3 µM; in test [2] it was 5.39 µM; in [3], 20.7 µM; in test [4], 5.35 µM; in test [5], 29.6 µM; in [6] it was 16.9 µM. For the same compound, the GI50 is 23.2 µM in [7], 15.4 µM in test [8], 12.6 µM in test [9] and 7.58 µM in [10]. For the same compound, the TGI was over 100 µM in [1]; 65 µM in [2]; over 100 µM in [3]; 47.5 µM in [4]; over 100 µM in [5]; over 100 µM in test [6]. The TGI in [7] was over 100 µM; in test [8], over 100 µM; in test [9] it was 54.8 µM; in test [10], 50.6 µM.
